Earlier results on one compound are cited in US11648207B1, “Extended release pharmaceutical composition of Clozapine” (priority 2021, dated 2023).

For data set [1] the following is noted: in vivo.

`CN1CCN(C2=Nc3cc(Cl)ccc3Nc3ccccc32)CC1` [Clozapine, 8-chloro-11-(4-methyl-1-piperazinyl)-5H-dibenzo[b,e][1,4]diazepine]: the solubility in water result is “very slightly soluble in water”. For the same compound, in data set [1], the mean terminal half-life was 12 h.
